# From a melting point compilation (Tetko et al.)
row,melting point [°C],SMILES
1,232 to 234,N#CC1=C(C#N)C(=O)C(NCc2ccccc2)=C(Cl)C1=O
2,107,O=C(Nc1ccc(F)cc1)c1cccc(Oc2cccc(C(F)(F)F)c2)n1
3,104 to 109,CC(C(C)P(c1ccccc1)c1ccccc1)P(c1ccccc1)c1ccccc1 (stereo unspecified)
4,82,CC(=O)OC(C(=O)c1ccccc1)c1ccccc1 (stereo unspecified)
5,189 to 193,CC(C)CCCC(C)C1CCC2C3CC(O)C4=CC(=O)CCC4(C)C3CCC12C (stereo unspecified)
6,144 to 146,COC1=C(OC)C(C(COS(=O)(=O)c2ccc(C)cc2)OS(=O)(=O)c2ccc(C)cc2)OC1=O (stereo unspecified)
7,155 to 158,Cc1cnnc2c1-c1nonc1CC2
8,109,COc1ccc(C(=O)c2ccc(C)cc2)cc1OC
9,275,CC(=O)N1c2cc3[nH]c(C)cc3cc2CC1C (stereo unspecified)
10,220 to 222,COc1ccc2c(c1)/C(=N/Nc1ccc([N+](=O)[O-])cc1[N+](=O)[O-])C2
11,293 to 294,O=C(c1ccccc1)N1CCc2cc3c(cc21)CCN3C(=O)c1ccccc1
12,130,Cc1ccc(NN=C2C(=O)OC(C)(C)OC2=O)cc1
13,87.5,Cc1cc(C)c(Cl)c(O)c1Cl
14,147,C#CC1(O)CC[C@@]2(C)C(CC[C@@H]3[C@@H]2CC[C@@]2(C)[C@H]3CC[C@]2(O)C#C)C1 (stereo partly specified)
15,275 to 277,Cc1cc2c(c(=O)n1Cc1ccccc1)C(c1ccccc1)C(C#N)=C(N)O2 (stereo unspecified)
16,275 to 277,Cc1n[nH]c(S)n1
17,145,COC(=O)c1scc(S(C)(=O)=O)c1N
18,128 to 130,O=C(O)C1CC(=O)N(Cc2ccc(C(F)(F)F)cc2)C1 (stereo unspecified)
19,119,Nc1nc2ccc(OC(F)(F)F)cc2s1
20,159 to 161,Nc1c(C(=O)O)sc2nc(-c3ccccc3)cc(C(F)(F)F)c12
21,88.5,COc1c(Cl)c(Cl)cc(Cl)c1Cl
22,-100,CCC(C)OC(C)CC (stereo unspecified)
23,177,O=C(O)c1cccc(Cl)c1F
24,73 to 74,Cc1ccc2cc(F)ccc2c1

row,melting point [°C],SMILES
1,50.5,NN(c1ccccc1)c1ccccc1
2,94 to 96,OC(C1CCCCC1)(C1CCCCC1)C1CCCCC1
3,147 to 148,Cc1c(C(=O)Cl)cnn1-c1ccccc1
4,8,CC1(C)CCCCC1O (stereo unspecified)
5,164,N#CCc1nn(-c2ccccc2)c(N)c1C#N
6,58.5,COc1ccc2c(OC)cccc2c1
7,197 to 199,C#CC1(O)CCC2C3CCC4CC5(CCC4(C)C3CCC21C)OCCO5 (stereo unspecified)
8,217 to 219,Cc1nn(-c2ccccc2)nc1C(=O)NNS(=O)(=O)c1ccccc1
9,157 to 158,Cc1ccc(Sc2ccc([N+](=O)[O-])cc2C=O)cc1
10,167,Cc1cccc(C)c1NC(=O)C1C2C=CC(C2)C1C(=O)O (stereo unspecified)
11,180,O=S(=O)(Oc1ccccc1)c1ccccc1C=Cc1ccccc1S(=O)(=O)Oc1ccccc1
12,77 to 78,O=C(Cl)c1cc(-c2cccs2)on1
13,186,Cc1ccc(C(=O)O)c([N+](=O)[O-])c1O
14,152,Nc1ccc(C(=O)NCCC(=O)O)cc1
15,186 to 189,CCN(CC)c1ccc(/C=C2\CC/C(=C\c3ccc(N(CC)CC)cc3)C2=O)cc1
16,-47,COc1cccc(C)c1
17,147 to 148,O=C(O)C12CC3CC(CC(Br)(C3)C1)C2
18,120,O=Cc1ccc(Sc2ccc(Cl)cc2)c([N+](=O)[O-])c1
19,183 to 185,O=[N+]([O-])c1ccc(-c2nnc3n2CN(c2ccccc2[N+](=O)[O-])CS3)cc1
20,171,CC1=NN(c2ccccc2)C(=O)C1=Cc1c(O)c2cccc(C)c2[nH]c1=O
21,300,Nc1nc(=O)c2[nH]c(=S)[nH]c2[nH]1
22,70 to 71,COC(=O)c1c(C)oc(C)c1S(=O)(=O)Cl
23,200,COC1CC2C3(C)CCCC2(COC3O)C2C(OC(C)=O)CC3C(C)C(=O)C12C3O (stereo unspecified)
24,120 to 121,CCOC(=O)C(C#N)=Cc1ccc(-c2ccccc2OC)o1

row,melting point [°C],SMILES
1,97 to 100,CCC(=O)OC1CCC2(C)C(=CCC3C2CCC2(C)C(C(C)CCCC(C)C)CCC32)C1 (stereo unspecified)
2,207,CNC(C)C1C(O)CC2(C)C3CCC4C(C)(C)C(NC)CCC45CC35CCC12C (stereo unspecified)
3,76 to 78,CCCC1(C)CC(=O)NC1=O (stereo unspecified)
4,37 to 45,O=C(CC(=O)C(F)F)c1ccccc1
5,-27.5,CCOc1cccc(F)c1
6,109,CC12CCC(C(=O)/C(=N\O)C1=O)C2(C)C (stereo unspecified)
7,82 to 83,Cc1nc(N)ccc1Br
8,198,CC1=CCC(C)C1=NNc1ccc([N+](=O)[O-])cc1[N+](=O)[O-] (stereo unspecified)
9,231,N#CC1=C(N)OC2(C(=O)Nc3ccccc32)C2=C1CCCC2 (stereo unspecified)
10,159,O=[N+]([O-])c1ccccc1N1CSc2nnc(-c3cccnc3)n2C1
11,132 to 137,OCC(F)(F)C(F)(F)C(F)(F)C(F)(F)C(F)(F)C(F)(F)C(F)(F)C(F)(F)CO
12,197,COc1cc(-c2nnc3n2N=C(c2ccccc2)CS3)cc(OC)c1OC
13,31,CC(C)COc1ccc2ccccc2c1
14,173 to 175,CC(C)n1cc(C(N)=S)c(=O)n(Cc2ccccc2)c1=O
15,150,CC(=O)OC[C@H]1O[C@@H](OC(C)=O)[C@H](NC(=O)OCc2ccccc2)[C@@H](OC(C)=O)[C@@H]1OC(C)=O
16,51 to 54,OCc1cccc(N2CCOCC2)c1
17,178,CCOC(=O)C1=C(COCCN)NC(C)=C(C(=O)OC)C1c1ccccc1Cl (stereo unspecified)
18,211,COc1ccc(C2C(C#N)=C(N)Oc3c2c(C(F)(F)F)nn3-c2ccccc2)cc1 (stereo unspecified)
19,218,C=CC1(C)C=C2CCC3C(C)(C(=O)O)CCCC3(C)C2CC1 (stereo unspecified)
20,168,CC(C)(C)CC(=O)OCC(=O)C1(O)CCC2C3CCC4=CC(=O)CCC4(C)C3C(O)CC21C (stereo unspecified)
21,105 to 107,O=C1/C(=N\Nc2cccc(F)c2)C(C(F)(F)F)=NN1c1ccccc1
22,155,N#CC1OCC(OC(=O)c2ccccc2)C(OC(=O)c2ccccc2)C1OC(=O)c1ccccc1 (stereo unspecified)
23,160 to 161,Cc1ccc(C(=O)O)c(N)c1

row,SMILES,melting point [°C]
1,N#CCc1ccccc1CC#N,59
2,FC(F)(F)C(F)(Cl)Cl,-56.6
3,O=C(Cc1ccccc1)OC(=O)Cc1ccccc1,73.3
4,CCOP(=S)(OCC)SCn1c(=O)oc2cc(Cl)ccc21,47.8
5,COc1ccc(NN=C2C(=O)NC(=O)NC2=O)cc1,264
6,CC(CN1CCOCC1)C(C(=O)N1CCCC1)(c1ccccc1)c1ccccc1 (stereo unspecified),180
7,CC(Oc1ccc(Oc2ncc(C(F)(F)F)cc2Cl)cc1)C(=O)O (stereo unspecified),108
8,Clc1cc2c(c(Cl)c1Cl)Oc1c(Cl)c(Cl)c(Cl)c(Cl)c1O2,264
9,N#Cc1cc(C#N)c(C#N)cc1C#N,267 to 270
10,C=C1C(=O)OC2CC(C)C3C=CC(=O)C3(C)C(O)C12 (stereo unspecified),168
